Tests used:
EGFR (ErbB1) T790M = EGFR (ErbB1) T790M (Homo sapiens (Human), UniProt P00533, T790M); assay: Z'-LYTE kinase inhibition assay against EGFR T790M; format: biochemical; conditions: compound at 100 nM; ATP concentration at Km
Method: (§1) Inhibitory activities of compounds against BTK, EGFR T790M, EGFR L858R, and EGFR L858R/T790M were measured using Z′-LYTE® Method from Life Technologies as briefly described in the following.
(§2) Test Compounds are screened in 1% DMSO (final) in the well. For 10 point titrations, 3-fold serial dilutions are conducted from the starting concentration. All ATP Solutions are diluted to a 4× working concentration in Kinase Buffer (50 mM HEPES pH 7.5, 0.01% BRIJ-35, 10 mM MgCl2, 1 mM EGTA). Peptide/Kinase Mixtures are diluted to a 2× working concentration in the appropriate Kinase Buffers as described below. • (i) Peptide/Kinase Mixtures for measurement of EGFR (ErbB1) L858R: • The 2×EGFR (ErbB1) L858R/Tyr 04 mixture is prepared in 50 mM HEPES pH 7.5, 0.01% BRIJ-35, 10 mM MgCl2, 4 mM MnCl2. 1 mM EGTA, 2 mM DTT. The final 10 μL Kinase Reaction consists of 0.2-1.68 ng EGFR (ErbB1) L858R and 2 μM Tyr 04 in 50 mM HEPES pH 7.5, 0.01% BRIJ-35, 10 mM MgCl2, 2 mM MnCl2, 1 mM EGTA, 1 mM DTT. After the 1 hour Kinase Reaction incubation, 5 μL of a 1:64 dilution of Development Reagent B is added. • (ii) Peptide/Kinase Mixtures for measurement of EGFR (ErbB1) T790M: The 2×EGFR (ErbB1) T790M/Tyr 04 mixture is prepared in 50 mM HEPES pH 6.5, 0.01% BRIJ-35, 10 mM MgCl2, 1 mM EGTA, 0.02% NaN3. The final 10 μL Kinase Reaction consists of 3.9-30.2 ng EGFR (ErbB1) T790M and 2 μM Tyr 04 in 50 mM HEPES pH 7.0, 0.01% BRIJ-35, 10 mM MgCl2, 1 mM EGTA, 0.01% NaN3. After the 1 hour Kinase Reaction incubation, 5 μL of a 1:64 dilution of Development Reagent B is added. • (iii) Peptide/Kinase Mixtures for measurement of EGFR (ErbB1) L858R/T790M: The 2×EGFR (ErbB1) T790M L858R/Tyr 04 mixture is prepared in 50 mM HEPES pH 6.5, 0.01% BRIJ-35, 10 mM MgCl2, 1 mM EGTA, 0.02% NaN3. The final 10 μL Kinase Reaction consists of 0.38-4.22 ng EGFR (ErbB1) T790M L858R and 2 μM Tyr 04 in 50 mM HEPES pH 7.0, 0.01% BRIJ-35, 10 mM MgCl2, 1 mM EGTA, 0.01% NaN3. After the 1 hour Kinase Reaction incubation, 5 μL of a 1:64 dilution of Development Reagent B is added. • (iv) Peptide/Kinase Mixtures for measurement of BTK: The 2×BTK/Tyr 01 mixture is prepared in 50 mM HEPES pH 7.5, 0.010/BRIJ-35, 10 mM MgCl2, 1 mM EGTA. The final 10 μL Kinase Reaction consists of 1.04-10.4 ng BTK and 2 μM Tyr 01 in 50 mM HEPES pH 7.5, 0.01% BRIJ-35, 10 mM MgCl2, 1 mM EGTA. After the 1 hour Kinase Reaction incubation, 5 μL of a 1:256 dilution of Development Reagent B is added.
(§3) Reaction starts by 30-second shaking of mixture consisting of 2.5 μL 4× test compound, 5 μL 2× kinase reaction mixture and 2.5 μL 4×ATP Solution on Bar-coded Corning, low volume NBS, black 384-well plate (Corning Cat. #3676). Then the mixture is incubated for 60-minute at room temperature for the kinase reaction, followed by addition of 5 μL of a 1:1024 dilution of development reagent A and 30-second plate shake. The mixture is then incubated for another 60-minute at room temperature for development reaction. Finally fluorescence is read by plate reader.
(§4) The Z′-LYTE assay was carried out with ATP concentration at Km. The scale utilized in Tables 2-6 is as follows: ++ more than 50% inhibition and + less than 50% inhibition.

BTK = BTK (Homo sapiens (Human), UniProt Q06187); assay: Z'-LYTE kinase inhibition assay against BTK; format: biochemical; conditions: for inhibition at 0.1 µM: compound at 100 nM, ATP concentration at Km; for IC50: series of concentrations, GraphPad Prism 5
Method in brief: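 Z′-LYTE FRET readout: 1.04-10.4 ng BTK with 2 μM Tyr 01 peptide, ATP at Km, in 50 mM HEPES pH 7.5, 10 mM MgCl2, 1 mM EGTA, 0.01% BRIJ-35, 1% DMSO. 60 min kinase reaction at room temperature, then 60 min development; IC50 from 10-point, 3-fold titrations.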

EGFR (ErbB1) L858R/T790M = EGFR (ErbB1) L858R/T790M (Homo sapiens (Human), UniProt P00533, L858R/T790M); assay: Z'-LYTE kinase inhibition assay against EGFR L858R/T790M; format: biochemical; conditions: compound at 100 nM; ATP concentration at Km
Method: as §1, §2, §3, §4

EGFR (ErbB1) L858R = EGFR (ErbB1) L858R (Homo sapiens (Human), UniProt P00533, L858R); assay: Z'-LYTE kinase inhibition assay against EGFR L858R; format: biochemical; conditions: compound at 100 nM; ATP concentration at Km
Method: as §1, §2, §3, §4

EGFR del746_750 = EGFR del746_750 (Homo sapiens (Human), UniProt P00533, DEL746-750); assay: SelectScreen Lantha method (Eu-anti-GST antibody/tracer) for EGFR del746_750; format: binding; conditions: compound at 100 nM; read-out: % Inhibition against EGFR del745_750
Method: SelecteScreen's Lantha® method from Life Technologies was used to measure compound's activities in inhibition of EGFR del746_750.
Test Compounds are screened in 1% DMSO (final) in the well. For 10 point titrations, 3-fold serial dilutions are conducted from the starting concentration. • Components for EGFR del745_750: • Kinase Buffer A: 50 mM HEPES pH 7.5, 0.01% BRIJ-35, 10 mM MgCl2, 1 mM EGTA • Kinase/Antibody Mixtures for EGFR del745_ 750: EGFR del745_ 750 10 nM, Antibody: Eu-anti-GST 2 nM, Tracer 199 10 nM, Inhibitor: SB202190 88.2 nM, All Kinase/Antibody Mixtures are diluted to a 2× working concentration in the appropriate Kinase Buffer • Tracer: The 4× AlexaFluor® labeled Tracer is prepared in Kinase Buffer.
To start the measurement, the following components are added to individual wells of bar-coded, low volume, white 384-well plate (Greiner Cat. #784207): • 1. 160 nL—100× Test Compound in 100% DMSO. • 2. 3.84 μL—Kinase Buffer: • 3. 8.0 μL—2× Kinase/Antibody Mixture • 4. 4.0 μL—4× Tracer The mixture above is then shaken for 30-second following by 60-minute incubation at room temperature. Finally the plate is read on fluorescence plate reader.
as §4

OCI-Ly10 cells = assay: OCI-Ly10 cell proliferation assay (Alamar Blue, 72 hours); format: cell-based; conditions: Homo sapiens
Method: OCI-Ly10 cells were cultured in Iscove's DMEM supplemented with 20% fetal bovine serum and 1× penicillin/streptomycin/glutamine. The cells were maintained in T175 flasks under 5% CO2 in a 37 ° C. humidified incubator for 5 days prior to plating and assay.
Cells were pooled by centrifugation (200 ref, 8 minutes) and resuspended in fresh medium to a concentration of 2.00E+05 cells/ml. 200 µl of the cell suspension was added to each well (40,000 cells/well) of a black-walled 96 well plate to which 1 μl of compound (n=3 per concentration) in 100% DMSO (0.5% final concentration) was added per well. Vehicle and cell free wells were also included in the assay. The dosed cells were cultured under normal conditions for 72 hours.
Cell proliferation is measured using the dye Alamar Blue (resazurin). Resazurin is reduced to resorufin by cellular enzymes and is fluorescent (544 nm excitation, 612 nm emission). Fluorescence intensity is proportional to cell number. Resazurin was prepared in PBS to a stock concentration of 440 μM. 40 μl of the 440 μM resazurin stock solution was added 3 hours prior to the 72 hour termination of the assay. The plate was returned to normal culture conditions and fluorescence measurements were collected using a Cytation3 multimode plate reader (Biotek) at 72 hours.
The scale utilized in Table 8 is as follows: ++ less than 50 nM and + greater than 50 nM.

Chain of EGFR del746_750 (P00533 other isoform, or with tags, fused parts or gaps del E746-A750): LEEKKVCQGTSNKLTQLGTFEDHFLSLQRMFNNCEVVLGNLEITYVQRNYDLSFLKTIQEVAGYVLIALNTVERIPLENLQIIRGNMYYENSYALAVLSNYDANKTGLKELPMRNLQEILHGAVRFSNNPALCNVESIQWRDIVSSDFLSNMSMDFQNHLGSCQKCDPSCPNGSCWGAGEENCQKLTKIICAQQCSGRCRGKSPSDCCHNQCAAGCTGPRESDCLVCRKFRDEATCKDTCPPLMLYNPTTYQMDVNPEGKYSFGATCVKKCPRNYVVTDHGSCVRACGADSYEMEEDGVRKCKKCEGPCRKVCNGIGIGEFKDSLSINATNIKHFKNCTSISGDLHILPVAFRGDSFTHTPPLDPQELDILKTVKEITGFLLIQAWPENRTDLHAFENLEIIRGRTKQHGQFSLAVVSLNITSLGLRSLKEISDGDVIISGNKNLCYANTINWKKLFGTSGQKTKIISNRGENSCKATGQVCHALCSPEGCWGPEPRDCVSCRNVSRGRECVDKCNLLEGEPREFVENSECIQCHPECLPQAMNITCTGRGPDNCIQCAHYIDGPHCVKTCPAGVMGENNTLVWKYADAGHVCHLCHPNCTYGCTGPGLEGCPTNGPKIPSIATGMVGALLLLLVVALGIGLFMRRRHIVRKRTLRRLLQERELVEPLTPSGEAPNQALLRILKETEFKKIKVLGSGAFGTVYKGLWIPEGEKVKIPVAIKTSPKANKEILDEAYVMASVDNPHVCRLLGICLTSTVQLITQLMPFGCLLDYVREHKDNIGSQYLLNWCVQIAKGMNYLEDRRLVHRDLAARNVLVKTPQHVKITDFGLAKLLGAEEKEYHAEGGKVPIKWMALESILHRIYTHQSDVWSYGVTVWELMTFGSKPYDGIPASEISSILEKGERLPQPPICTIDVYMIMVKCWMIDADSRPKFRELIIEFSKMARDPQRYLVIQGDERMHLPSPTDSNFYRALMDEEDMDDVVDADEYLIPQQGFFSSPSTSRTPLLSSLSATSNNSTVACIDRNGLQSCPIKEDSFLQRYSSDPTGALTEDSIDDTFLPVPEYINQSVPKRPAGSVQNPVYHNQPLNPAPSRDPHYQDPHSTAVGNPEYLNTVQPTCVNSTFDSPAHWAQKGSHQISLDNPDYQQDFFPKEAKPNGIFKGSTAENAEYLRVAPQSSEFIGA
Chain of BTK (Q06187 whole entry): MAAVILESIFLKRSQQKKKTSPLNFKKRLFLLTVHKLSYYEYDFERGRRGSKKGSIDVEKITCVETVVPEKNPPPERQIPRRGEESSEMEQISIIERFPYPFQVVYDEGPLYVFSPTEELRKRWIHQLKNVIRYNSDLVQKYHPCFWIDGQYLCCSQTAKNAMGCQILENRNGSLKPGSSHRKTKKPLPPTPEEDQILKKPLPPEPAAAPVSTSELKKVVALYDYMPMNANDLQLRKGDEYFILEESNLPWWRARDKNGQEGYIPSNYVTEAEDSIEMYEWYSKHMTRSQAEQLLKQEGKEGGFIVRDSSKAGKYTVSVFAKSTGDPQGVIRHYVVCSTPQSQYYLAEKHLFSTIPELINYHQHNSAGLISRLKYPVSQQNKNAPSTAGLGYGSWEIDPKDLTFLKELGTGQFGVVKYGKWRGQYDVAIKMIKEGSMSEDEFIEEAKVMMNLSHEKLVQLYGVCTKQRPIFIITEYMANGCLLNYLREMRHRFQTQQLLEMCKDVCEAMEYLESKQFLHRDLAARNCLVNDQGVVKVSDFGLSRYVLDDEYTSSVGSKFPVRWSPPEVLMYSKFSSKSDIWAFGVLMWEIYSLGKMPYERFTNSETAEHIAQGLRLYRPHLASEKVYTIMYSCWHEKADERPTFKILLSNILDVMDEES
Chain of EGFR (ErbB1) T790M (P00533 25-1210 T790M): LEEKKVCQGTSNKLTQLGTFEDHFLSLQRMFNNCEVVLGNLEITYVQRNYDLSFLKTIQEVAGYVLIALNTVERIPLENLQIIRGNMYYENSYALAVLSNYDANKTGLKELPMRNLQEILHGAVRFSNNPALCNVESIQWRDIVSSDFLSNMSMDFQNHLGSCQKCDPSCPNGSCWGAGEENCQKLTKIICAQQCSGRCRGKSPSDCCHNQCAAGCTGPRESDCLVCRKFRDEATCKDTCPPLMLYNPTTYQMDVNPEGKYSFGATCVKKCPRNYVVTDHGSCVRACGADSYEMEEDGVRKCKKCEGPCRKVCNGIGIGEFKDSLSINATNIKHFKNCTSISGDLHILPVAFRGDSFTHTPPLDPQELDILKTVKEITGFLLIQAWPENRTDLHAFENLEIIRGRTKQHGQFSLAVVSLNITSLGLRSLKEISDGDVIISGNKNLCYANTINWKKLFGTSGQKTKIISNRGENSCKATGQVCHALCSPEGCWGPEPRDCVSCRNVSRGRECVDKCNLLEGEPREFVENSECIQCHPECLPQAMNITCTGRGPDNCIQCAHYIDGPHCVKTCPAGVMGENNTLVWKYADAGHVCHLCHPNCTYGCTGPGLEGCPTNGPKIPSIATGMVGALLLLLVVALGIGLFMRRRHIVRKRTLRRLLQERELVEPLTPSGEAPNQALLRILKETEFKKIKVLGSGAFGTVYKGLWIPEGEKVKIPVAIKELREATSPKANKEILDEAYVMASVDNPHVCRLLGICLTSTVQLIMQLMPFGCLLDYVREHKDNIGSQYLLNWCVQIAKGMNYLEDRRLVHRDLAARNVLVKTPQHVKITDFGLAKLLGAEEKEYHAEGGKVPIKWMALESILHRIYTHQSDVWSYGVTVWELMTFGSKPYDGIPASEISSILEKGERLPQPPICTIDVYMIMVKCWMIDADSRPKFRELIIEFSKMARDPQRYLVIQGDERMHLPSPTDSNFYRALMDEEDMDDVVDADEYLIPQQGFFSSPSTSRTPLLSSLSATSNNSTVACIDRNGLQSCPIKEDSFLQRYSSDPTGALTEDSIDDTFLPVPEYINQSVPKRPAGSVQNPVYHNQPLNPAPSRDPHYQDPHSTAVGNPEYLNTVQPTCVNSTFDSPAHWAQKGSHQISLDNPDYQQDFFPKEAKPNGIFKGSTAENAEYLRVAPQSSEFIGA
Chain of EGFR (ErbB1) L858R/T790M (P00533 25-1210 T790M/L858R): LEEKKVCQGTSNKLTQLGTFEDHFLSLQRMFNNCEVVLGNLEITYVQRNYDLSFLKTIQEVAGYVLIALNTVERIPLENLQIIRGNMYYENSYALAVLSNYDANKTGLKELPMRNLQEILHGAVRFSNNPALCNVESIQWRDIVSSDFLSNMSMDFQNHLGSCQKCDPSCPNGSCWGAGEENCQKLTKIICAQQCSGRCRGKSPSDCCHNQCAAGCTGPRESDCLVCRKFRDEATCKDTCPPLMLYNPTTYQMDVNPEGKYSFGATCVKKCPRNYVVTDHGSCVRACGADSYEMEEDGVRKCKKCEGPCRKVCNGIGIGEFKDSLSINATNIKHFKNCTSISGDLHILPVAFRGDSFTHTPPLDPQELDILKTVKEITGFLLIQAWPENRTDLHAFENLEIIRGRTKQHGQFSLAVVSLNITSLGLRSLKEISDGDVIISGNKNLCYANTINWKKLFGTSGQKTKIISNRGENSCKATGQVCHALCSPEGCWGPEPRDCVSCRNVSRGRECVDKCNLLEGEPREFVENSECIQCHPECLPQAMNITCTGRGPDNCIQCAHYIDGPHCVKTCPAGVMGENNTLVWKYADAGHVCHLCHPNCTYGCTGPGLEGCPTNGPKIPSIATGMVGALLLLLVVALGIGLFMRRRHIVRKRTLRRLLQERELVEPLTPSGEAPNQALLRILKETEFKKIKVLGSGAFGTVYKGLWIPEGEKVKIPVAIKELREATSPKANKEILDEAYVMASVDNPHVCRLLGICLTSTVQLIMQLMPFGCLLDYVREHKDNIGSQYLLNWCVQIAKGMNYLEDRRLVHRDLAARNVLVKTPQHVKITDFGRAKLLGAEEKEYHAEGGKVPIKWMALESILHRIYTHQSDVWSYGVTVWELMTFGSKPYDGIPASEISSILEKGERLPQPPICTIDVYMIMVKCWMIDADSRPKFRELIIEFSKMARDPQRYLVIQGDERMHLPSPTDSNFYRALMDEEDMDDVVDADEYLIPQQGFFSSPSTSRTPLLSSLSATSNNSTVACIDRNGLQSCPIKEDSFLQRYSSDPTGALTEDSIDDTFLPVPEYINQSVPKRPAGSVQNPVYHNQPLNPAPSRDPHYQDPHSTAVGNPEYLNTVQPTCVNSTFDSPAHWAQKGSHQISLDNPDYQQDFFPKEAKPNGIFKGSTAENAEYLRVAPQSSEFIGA

SMILES | inhibition at 0.1 µM (EGFR (ErbB1) T790M) | inhibition at 0.1 µM (BTK) | inhibition at 0.1 µM (EGFR (ErbB1) L858R/T790M) | inhibition at 0.1 µM (EGFR (ErbB1) L858R) | inhibition at 0.1 µM (EGFR del746_750) | IC50 (BTK) | IC50 (OCI-Ly10 cells)
C=CC(=O)N1CCCC(c2cc(-c3ccc(C)nc3)cc3cnc(N)nc23)C1 (stereo not drawn) [C042, 1-(3-(2-amino-6-(6-methylpyridin-3-yl)quinazolin-8-yl)piperidin-1-yl)prop-2-en-1-one] | < 50% | < 50% | < 50% | < 50% | < 50% |  | 
C=CC(=O)Nc1cccc(-c2cc(-c3ccc(C(=O)Nc4cccc(C(F)(F)F)c4)cc3)cc3cncnc23)c1 [C051, 4-(8-(3-acrylamidophenyl)quinazolin-6-yl)-N-(3-(trifluoromethyl)phenyl)benzamide] | > 50% | > 50% | > 50% | > 50% | > 50% | < 0.1 µM | 
C=CC(=O)Nc1cccc(-c2cc(-c3ccc(C(=O)Nc4ccccn4)cc3Cl)cc3cncnc23)c1 [C052, 4-(8-(3-acrylamidophenyl)quinazolin-6-yl)-3-chloro-N-(pyridin-2-yl)benzamide] | < 50% | > 50% | < 50% | < 50% | < 50% | < 0.1 µM | < 0.05 µM
C=CC(=O)Nc1cccc(-c2cc(-c3ccccc3Cl)cc3cncnc23)c1 [C013, N-(3-(6-(2-chlorophenyl)quinazolin-8-yl)phenyl)acrylamide] | < 50% | > 50% | < 50% | > 50% | > 50% | < 0.1 µM | 
C=CC(=O)Nc1cccc(-c2cc(-c3ccc(C(=O)Nc4ccccn4)cc3)cc3cncnc23)c1 [C008, 4-(8-(3-acrylamidophenyl)quinazolin-6-yl)-N-(pyridin-2-yl)benzamide] | < 50% | > 50% | < 50% | < 50% | < 50% | < 0.1 µM | < 0.05 µM
C=CC(=O)Nc1cccc(-c2cc(-c3ccccc3Cl)cc3cnc(N)nc23)c1 [C003, N-(3-(2-amino-6-(2-chlorophenyl)quinazolin-8-yl)phenyl)acrylamide] | < 50% | > 50% | < 50% | > 50% | > 50% | < 0.1 µM | 

Continued, values first:

inhibition at 0.1 µM (EGFR (ErbB1) T790M) | inhibition at 0.1 µM (BTK) | inhibition at 0.1 µM (EGFR (ErbB1) L858R/T790M) | inhibition at 0.1 µM (EGFR (ErbB1) L858R) | inhibition at 0.1 µM (EGFR del746_750) | IC50 (BTK) | IC50 (OCI-Ly10 cells) | SMILES
< 50% | > 50% | < 50% | > 50% | > 50% | < 0.1 µM |  | C=CC(=O)Nc1cccc(-c2cc(-c3cccnc3)cc3cnc(Nc4ccccc4)nc23)c1 [C076, N-(3-(2-(phenylamino)-6-(pyridin-3-yl)quinazolin-8-yl)phenyl)acrylamide]
< 50% | > 50% | < 50% | > 50% | > 50% | < 0.1 µM |  | C=CC(=O)Nc1cccc(-c2cc(-c3ccccc3)cc3cnc(Nc4ccccc4)nc23)c1 [C074, N-(3-(6-phenyl-2-(phenylamino)quinazolin-8-yl)phenyl)acrylamide]
< 50% | > 50% | < 50% | > 50% | > 50% | < 0.1 µM |  | C=CC(=O)Nc1cccc(-c2cc(-c3cccc(F)c3)cc3cncnc23)c1 [C073, N-(3-(6-(3-fluorophenyl)quinazolin-8-yl)phenyl)acrylamide]
< 50% | > 50% | < 50% | < 50% |  | < 0.1 µM |  | C=CC(=O)N1CCC(c2cc(-c3ccc(C(=O)Nc4cc(Cl)ccn4)cc3)n3cnccc23)C1 (stereo not drawn) [C064, 4-(5-(1-acryloylpyrrolidin-3-yl)pyrrolo[1,2-c]pyrimidin-7-yl)-N-(4-chloropyridin-2-yl)benzamide]

From patent publication US10544106B2, “Certain chemical entities, compositions, and methods” (NeuPharma, Inc., priority 2016, dated 2020)
